Some test systems named below: SNB-19 CNS; PC-3 prostate; NCI-H226 lung; 786-0 renal; MDA-MB-435; KM12 colon; HT29 colon; SK-MEL-28 melanoma; CCRF-CEM leukemia; SF-295 CNS.
Assay in all cases: NCI-60 cell line screen, 48 h

The record followed here is PubChem BioAssay (NCI).

The structures appear in SMILES notation. Where “and” joins values, the source holds several entries; their conditions need not be identical. Equal entries are not always repeated.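 Protocol summary: plate cells (96-well), add compound at 5 concentrations, incubate 48 h, interpolate endpoints linearly. Abbreviation: GI50, concentration required for 50% inhibition of growth. At the TGI there is no net growth.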

As to `Cn1c(=O)c2[nH]cnc2n(C)c1=O.[CH2-]C(Cc1cccc2cc(C(=O)O)c(=O)oc12)OC.[Hg+2].[OH-]` (stereo unspecified), the GI50 is 17.7 µM with SNB-19 CNS; 18 µM in the test with PC-3 prostate; 21.4 µM with NCI-H226 lung; 16.6 µM with 786-0 renal; 16.9 µM in the test on MDA-MB-435; 17.3 µM with KM12 colon. Further, the GI50 in the test with HT29 colon was 17.1 µM; with SK-MEL-28 melanoma it was 19.1 µM; in the test on CCRF-CEM leukemia, 3.21 µM; with SF-295 CNS, 19.4 µM. In addition, the TGI was 31.6 µM in the test with SNB-19 CNS; 31.8 µM in the test with PC-3 prostate; 40.7 µM in the test with NCI-H226 lung; 30.2 µM in the test on 786-0 renal; 30.6 µM in the test with MDA-MB-435; 32 µM with KM12 colon. Further, the TGI in the test with HT29 colon was determined as 32 µM; with SK-MEL-28 melanoma it was 33.5 µM; in the test with CCRF-CEM leukemia, 18 µM; in the test with SF-295 CNS it was 38 µM.
`COC(=O)C1=C(O)C(C(=O)OC)[C@@]2(O)[C@@H](C(=O)OC)C(c3ccccc3Cl)C[C@@H]1[C@@H]2C(=O)OC` (stereo partly specified): the GI50 in the test with SNB-19 CNS is 16.2 µM; in the test with PC-3 prostate, 5.88 µM; with NCI-H226 lung it was 3.77 µM; with 786-0 renal, 5.22 µM; in the test on MDA-MB-435, 3.09 µM; in the test with KM12 colon it was 6.5 µM. The GI50 in the test on HT29 colon was 6.28 µM; in the test with SK-MEL-28 melanoma it was 7.16 µM; with CCRF-CEM leukemia, 1.64 µM; in the test with SF-295 CNS, 7.05 µM. The TGI amounted to 39.5 µM in the test on SNB-19 CNS; 36.5 µM with PC-3 prostate; 15.1 µM in the test with NCI-H226 lung; 19.5 µM with 786-0 renal; 8.82 µM in the test with MDA-MB-435; 21.2 µM in the test with KM12 colon. In addition, the TGI was determined as 32.6 µM in the test on HT29 colon, 30.4 µM in the test with SK-MEL-28 melanoma, 5.12 µM with CCRF-CEM leukemia and 23.8 µM in the test with SF-295 CNS.
`C=CC(=O)Nc1cccc(Nc2nc(Nc3ccc(N4CCN(C(C)=O)CC4)cc3OC)ncc2C(F)(F)F)c1`: the GI50 with SNB-19 CNS was 5.83 µM; in the test on PC-3 prostate, 9.75 µM and 4.73 µM; in the test on NCI-H226 lung it was 3.29 µM and 2.38 µM; in the test with 786-0 renal, 2.67 µM and 1.56 µM; in the test with MDA-MB-435 it was 4.11 µM and 2.95 µM; with KM12 colon, 7.48 µM and 5.58 µM. Besides, the GI50 is 2.18 µM and 1.55 µM in the test on HT29 colon; 8.43 µM in the test on SK-MEL-28 melanoma; 3.62 µM and 4.32 µM with CCRF-CEM leukemia; 6.82 µM and 8.18 µM in the test with SF-295 CNS. Besides, the TGI with SNB-19 CNS was greater than 100 µM; with PC-3 prostate, > 10 µM and 27.7 µM; in the test on NCI-H226 lung, > 10 µM and 12.7 µM; with 786-0 renal it was > 10 µM and 12.8 µM; in the test on MDA-MB-435 it was > 10 µM and 19.2 µM; with KM12 colon, > 10 µM and 38.6 µM. Further, the TGI was greater than 27.1 µM in the test with HT29 colon; greater than 93.1 µM in the test with SK-MEL-28 melanoma; greater than 65.5 µM with CCRF-CEM leukemia; > 10 µM and 23.1 µM in the test with SF-295 CNS.
Consider `COn1cc(C(=O)N=C(SC)SC)c2ccccc21`, for which the GI50 in the test on SNB-19 CNS was 40.2 µM; in the test with PC-3 prostate it was 25.1 µM; in the test on NCI-H226 lung it was 14.1 µM; in the test on 786-0 renal, 20.4 µM; with MDA-MB-435, 14 µM; with KM12 colon, 20.3 µM. In addition, the GI50 in the test with HT29 colon is 42.1 µM; in the test with SK-MEL-28 melanoma, 80 µM; in the test with CCRF-CEM leukemia, 22.3 µM; in the test on SF-295 CNS, 16.8 µM. For the same compound, the TGI in the test with SNB-19 CNS was greater than 100 µM; in the test with PC-3 prostate, greater than 100 µM; in the test on NCI-H226 lung, 51.2 µM; in the test on 786-0 renal, 46.9 µM; with MDA-MB-435 it was 39.7 µM; with KM12 colon, 52.7 µM. Moreover, the TGI in the test with HT29 colon was greater than 100 µM; in the test with SK-MEL-28 melanoma, greater than 100 µM; in the test on CCRF-CEM leukemia it was 91 µM; in the test with SF-295 CNS it was 55.4 µM.
Turning to `CCC(=O)OCN1C(=O)C=CC1=O`, the GI50 was greater than 100 µM in the test with SNB-19 CNS; 15.2 µM in the test on NCI-H226 lung; 21.7 µM with 786-0 renal; 17.4 µM in the test with MDA-MB-435; 19.3 µM with KM12 colon; 18.4 µM in the test on SF-295 CNS. Also, the TGI is > 100 µM and 32.5 µM in the test on SNB-19 CNS; 33.1 µM and 30.9 µM in the test with PC-3 prostate; 30.1 µM and > 63.3 µM in the test with NCI-H226 lung; 41.4 µM and 11.3 µM in the test with 786-0 renal; 32.8 µM and 28.5 µM with MDA-MB-435; 35.1 µM and 30.8 µM in the test on KM12 colon. The TGI was 40.8 µM and 35.9 µM with HT29 colon; 33.3 µM and 33.4 µM in the test with SK-MEL-28 melanoma; 1.84 µM in the test on CCRF-CEM leukemia; 35.2 µM and > 66.6 µM in the test with SF-295 CNS.
`Nc1nc(N)c(-c2ccc(Cl)cc2)c(/C=C/c2ccc([N+](=O)[O-])cc2)n1`: the GI50 in the test on SNB-19 CNS is 16.1 µM; with PC-3 prostate it was 3.9 µM; in the test on NCI-H226 lung, 20.3 µM; in the test with 786-0 renal, 5.81 µM; in the test on MDA-MB-435, 4.44 µM; in the test with KM12 colon, 23.4 µM. Also, the GI50 is 4.99 µM in the test on HT29 colon, 26.6 µM in the test with SK-MEL-28 melanoma, 6.17 µM with CCRF-CEM leukemia and 4.39 µM in the test with SF-295 CNS. Moreover, the TGI is greater than 100 µM in the test on SNB-19 CNS; greater than 100 µM in the test with PC-3 prostate; greater than 100 µM with NCI-H226 lung; 44.9 µM in the test with 786-0 renal; greater than 100 µM in the test on MDA-MB-435; greater than 100 µM in the test with KM12 colon. Moreover, the TGI with HT29 colon, in the test with SK-MEL-28 melanoma, with CCRF-CEM leukemia and in the test with SF-295 CNS was greater than 100 µM each time.
With `COC(=O)[C@]1(C)CC[C@]2(C)CC[C@]3(C)C(=CC(=O)[C@@H]4[C@@]5(C)CCC(=O)NC(C)(C)[C@@H]5CC[C@]43C)[C@@H]2C1`, the GI50 is 29 µM with SNB-19 CNS; 4.69 µM with PC-3 prostate; 14.9 µM with NCI-H226 lung; 18.3 µM in the test on 786-0 renal; 26.6 µM with MDA-MB-435; 16.4 µM in the test on KM12 colon. Moreover, the GI50 in the test with HT29 colon was 11.9 µM; in the test with SK-MEL-28 melanoma, 18.5 µM; in the test on CCRF-CEM leukemia it was 15.1 µM; with SF-295 CNS it was 19.4 µM. Moreover, the TGI in the test on SNB-19 CNS is greater than 100 µM; with PC-3 prostate, 21.3 µM; in the test with NCI-H226 lung, 35.4 µM; in the test with 786-0 renal it was 35 µM; with MDA-MB-435, greater than 100 µM; with KM12 colon, 38 µM. Further, the TGI in the test on HT29 colon came out at 80.5 µM; in the test with SK-MEL-28 melanoma, 36.5 µM; in the test with CCRF-CEM leukemia, 44.6 µM; in the test with SF-295 CNS, 43.8 µM.
